Reference: patent US20220142955A1, “METHODS OF TREATING ORGANIC ACIDEMIAS” (HemoShear Therapeutics, Inc., priority 2019, published 2022)
Read-outs that look alike come from different tables or passages of the source.

Columns and labels:
Assay type in all cases: cell-based, human
[1] = tested on: primary hepatocytes of methylmalonic acidemia patients; assay: Propionyl-CoA and methylmalonyl-CoA from various sources in MMA primary hepatocytes (Examples 4, 5); settings: Homo sapiens, Hepatocyte
Protocol: (§1) Primary hepatocytes isolated from livers of methylmalonic acidemia patients are treated with increasing doses of compound 1 (0, 1, 3, 10, 30, 100, 300, 1000 μM) for 30 minutes. […] At the end of the challenge period, media is removed and the cells are lysed with 70% MCCN and 0.1% TFA containing 100 μM of ethymalonyl-CoA as an internal standard and harvested. Cell lysates are processed for HTMS/MS analysis.
as §1, with “compound 5” for “compound 1”, “(0, 0.1, 0.3,” for “(0,”, “30, 100” for “30, 100, 300, 1000”, “30 min.” for “30 minutes.”, “70% MeCN” for “70% MCCN”

[2] = tested on: MMA primary hepatocytes; assay: HemoShear Technology, MMA primary hepatocytes (Examples 10, 11); settings: for EC50 / EC90: Homo sapiens, Hepatocyte
[3] = tested on: MMA primary hepatocytes; assay: Static cell culture, low/high propiogenic media, MMA primary hepatocytes; settings: MMA pHeps; for EC50 / EC90: Homo sapiens, Hepatocyte
Protocol: Unlike the HemoShear Technology, this assay is carried out without constant perfusion, utilizing cell culture media that was customized to mimic plasma levels of propiogenic sources (amino acids and ketoacids) in PA and MMA patients during periods of relative metabolic stability (low propiogenic media) and acute metabolic crisis (high propiogenic media). PA and MMA pHeps, in static cell culture, were treated with Compound 5 (concentrations ranging from 0.1 μM to 100 μM) for 30 minutes in low propiogenic media, followed by either a continuation of low propiogenic media or a switch to the high propiogenic media for 1 hour. The media used during the 1-hour incubation contained propiogenic SIL amino acids and ketoacids which are metabolized into labeled P-CoA and M-CoA in the cells. The SIL amino acids and ketoacids were a mix of ^13C and MeD8 labelling, but their catabolism produced a SIL P-CoA (denoted as ^13C-P-CoA for simplicity) with the same mass, independent of the type of SIL (also true for ^13C-M-CoA).

[4] = MMA pHeps, HemoShear, average ± SD
[5] = high propiogenic, static culture
[6] = low propiogenic, static culture

CCC(C)(C)C(=O)O [Compound 5, 2,2-dimethybutanoic acid]
EC50 ([1]; 100 μM 13C-heptanoate, read-out: concentration of methylmalonyl-CoA EC50): 0.02 µM
EC50 ([1]; 100 μM 13C-heptanoate, read-out: concentration of propionyl-CoA EC50): 3.84 µM
EC50 ([1]; 1 mM 13C-KIVA, read-out: concentration of methylmalonyl-CoA EC50): 1.17 µM
EC50 ([1]; 1 mM 13C-KIVA, read-out: concentration of propionyl-CoA EC50): 0.93 µM
EC50 ([1]; 3 mM 13C-ILE, read-out: concentration of methylmalonyl-CoA EC50): 1.38 µM
EC50 ([1]; 3 mM 13C-ILE, read-out: concentration of propionyl-CoA EC50): 2.04 µM
EC50 ([2]; MMA donor 1, representative data (FIG. 7A), read-out: P-CoA reduction EC50): 3.9 µM
EC50 ([2]; MMA donor 1, representative data (FIG. 7B), read-out: M-CoA reduction EC50): 3.25 µM
EC50 ([2]; MMA donor 1, representative data (FIG. 7E), read-out: MCA reduction EC50): 1.66 µM
EC50 ([2]; MMA pHeps, HemoShear, average ± SD, read-out: 2-Methylcitric acid (2MC) EC50): 0.8 ± 0.5 µM
EC90 ([2]; MMA pHeps, HemoShear, average ± SD, read-out: 2-Methylcitric acid (2MC) EC90): 7.5 ± 6.4 µM
EC50 ([2]; MMA pHeps, HemoShear, average ± SD, read-out: 12C-Acetyl-Camitine (C2) EC50): 4.3 ± 2.2 µM
EC90 ([2]; MMA pHeps, HemoShear, average ± SD, read-out: 12C-Acetyl-Camitine (C2) EC90): 31.3 ± 26.9 µM
EC50 ([2]; MMA pHeps, HemoShear, average ± SD, read-out: 12C-Methylmalonyl-CoA (M-CoA) EC50): 2 ± 1.2 µM
EC90 ([2]; MMA pHeps, HemoShear, average ± SD, read-out: 12C-Methylmalonyl-CoA (M-CoA) EC90): 12.6 ± 12.9 µM
EC50 ([2]; MMA pHeps, HemoShear, average ± SD, read-out: 12C-Propionyl-Carnitine (C3) EC50): 1.4 ± 0.5 µM
EC90 ([2]; MMA pHeps, HemoShear, average ± SD, read-out: 12C-Propionyl-Carnitine (C3) EC90): 18.1 ± 16.2 µM
EC50 ([2]; MMA pHeps, HemoShear, average ± SD, read-out: 12C-Propionyl-CoA (P-CoA) EC50): 2.1 ± 1.5 µM
EC90 ([2]; MMA pHeps, HemoShear, average ± SD, read-out: 12C-Propionyl-CoA (P-CoA) EC90): 36.1 ± 30.1 µM
EC50 ([2]; MMA pHeps, HemoShear, read-out: CoASH EC50): 14.1 ± 8.4 µM
EC90 ([2]; MMA pHeps, HemoShear, read-out: CoASH EC90): 23.8 ± 20.2 µM
EC50 ([2]; MMA pHeps, HemoShear, read-out: Compound 5-CoA (formation) EC50): 3.5 ± 1.7 µM
EC90 ([2]; MMA pHeps, HemoShear, read-out: Compound 5-CoA (formation) EC90): 52.4 ± 45.6 µM
12C-Acetyl-CoA Percent change at 30 μM ([2]; MMA pHeps, HemoShear): 13.5 ± 24.9%
CoASH Percent change at 30 μM ([2]; MMA pHeps, HemoShear): −22.3 ± 22.3%
average reduction in the C3/C2 ratio ([2]; MMA pHeps, HemoShear, at 30 μM): −2.2±0.2 log 2 fold change
2-Methylcitric acid (2MC) % change at 30 μM [2, 4]: −66.7±14.9%
12C-Acetyl-Camitine (C2) % change at 30 μM [2, 4]: 44.6 ± 26.8%
12C-Methylmalonyl-CoA (M-CoA) % change at 30 μM [2, 4]: −55±6.6%
12C-Propionyl-Carnitine (C3) % change at 30 μM [2, 4]: −65.9±10.7%
12C-Propionyl-CoA (P-CoA) % change at 30 μM [2, 4]: −74.2±11.6%
EC50 ([3]; high propiogenic media, static, read-out: 12C-Methylmalonyl-CoA (13C-M-CoA) EC50): 2.7 ± 1.6 µM
EC90 ([3]; high propiogenic media, static, read-out: 12C-Methylmalonyl-CoA (13C-M-CoA) EC90): 21.2 ± 2 µM
EC50 ([3]; high propiogenic media, static, read-out: 13C-Methymalonic acid EC50): 1.1 ± 0.9 µM
EC90 ([3]; high propiogenic media, static, read-out: 13C-Methymalonic acid EC90): 4.6 ± 3 µM
EC50 ([3]; high propiogenic media, static, read-out: 13C-Propionyl-CoA (13C-P-CoA) EC50): 1.6 ± 0.8 µM
EC90 ([3]; high propiogenic media, static, read-out: 13C-Propionyl-CoA (13C-P-CoA) EC90): 48.2 ± 47.5 µM
EC50 ([3]; high propiogenic, static culture, read-out: 12C-Acetyl-CoA EC50): 1.4 ± 1.4 µM
EC90 ([3]; high propiogenic, static culture, read-out: 12C-Acetyl-CoA EC90): 6.4 ± 7.1 µM
EC50 ([3]; high propiogenic, static culture, read-out: CoASH EC50): 13.1 ± 14.8 µM
EC90 ([3]; high propiogenic, static culture, read-out: CoASH EC90): 65.6 ± 81.2 µM
EC50 ([3]; high propiogenic, static culture, read-out: Compound 5-CoA (formation) EC50): 5.4 ± 2.8 µM
EC90 ([3]; high propiogenic, static culture, read-out: Compound 5-CoA (formation) EC90): 80.1 ± 57 µM
EC50 ([3]; low propiogenic media, static, read-out: 12C-Methylmalonyl-CoA (13C-M-CoA) EC50): 2.9 ± 1.6 µM
EC90 ([3]; low propiogenic media, static, read-out: 12C-Methylmalonyl-CoA (13C-M-CoA) EC90): 30.9 ± 16.2 µM
EC50 ([3]; low propiogenic media, static, read-out: 13C-Methymalonic acid EC50): 1.2 ± 1.3 µM
EC90 ([3]; low propiogenic media, static, read-out: 13C-Methymalonic acid EC90): 5.2 ± 3.3 µM
EC50 ([3]; low propiogenic media, static, read-out: 13C-Propionyl-CoA (13C-P-CoA) EC50): 1.3 ± 0.6 µM
EC90 ([3]; low propiogenic media, static, read-out: 13C-Propionyl-CoA (13C-P-CoA) EC90): 15.7 ± 18 µM
EC50 ([3]; low propiogenic, static culture, read-out: 12C-Acetyl-CoA EC50): 2.5 ± 2.6 µM
EC90 ([3]; low propiogenic, static culture, read-out: 12C-Acetyl-CoA EC90): 28.4 ± 52 µM
EC50 ([3]; low propiogenic, static culture, read-out: CoASH EC50): 2.3 ± 1.6 µM
EC90 ([3]; low propiogenic, static culture, read-out: CoASH EC90): 14.2 ± 13.5 µM
EC50 ([3]; low propiogenic, static culture, read-out: Compound 5-CoA (formation) EC50): 2 ± 0.7 µM
EC90 ([3]; low propiogenic, static culture, read-out: Compound 5-CoA (formation) EC90): 18 ± 15.7 µM
12C-Methylmalonyl-CoA (13C-M-CoA) % change at 30 μM ([3]; high propiogenic media, static): −73±5.8%
13C-Methymalonic acid % change at 30 μM ([3]; high propiogenic media, static): −91 ± 4%
13C-Propionyl-CoA (13C-P-CoA) % change at 30 μM ([3]; high propiogenic media, static): −75.9±7.3%
12C-Acetyl-CoA Percent change (30 μM) [3, 5]: −14.6 ± 12.6%
CoASH Percent change (30 μM) [3, 5]: −28.7 ± 7.3%
12C-Methylmalonyl-CoA (13C-M-CoA) % change at 30 μM ([3]; low propiogenic media, static): −76.5±13.2%
13C-Methymalonic acid % change at 30 μM ([3]; low propiogenic media, static): −83.2 ± 5%
13C-Propionyl-CoA (13C-P-CoA) % change at 30 μM ([3]; low propiogenic media, static): −77.6±9.8%
12C-Acetyl-CoA Percent change (30 μM) [3, 6]: −35.5 ± 18.1%
CoASH Percent change (30 μM) [3, 6]: −47.7 ± 13.4%
